Data taken from paper PMC7059037, “Development of 1,2,4-Triazole-5-Thione Derivatives as Potential Inhibitors of Enoyl Acyl Carrier Protein Reductase (InhA) in Tuberculosis” (Iranian Journal of Pharmaceutical Research : IJPR, 2019).
Values after ≈ are worked out from the molar mass of the structure shown. Like-named read-outs stand apart in the source and are kept apart here.

Assays:
[1] = biological target: Mtb InhA (enoyl acyl carrier protein reductase) (Mycobacterium tuberculosis, UniProt P9WGR1); assay: Mtb InhA enzyme inhibition assay (fluorescence based); assay type: biochemical
Mtb InhA (enoyl acyl carrier protein reductase), sequence (P9WGR1 whole entry, looked up): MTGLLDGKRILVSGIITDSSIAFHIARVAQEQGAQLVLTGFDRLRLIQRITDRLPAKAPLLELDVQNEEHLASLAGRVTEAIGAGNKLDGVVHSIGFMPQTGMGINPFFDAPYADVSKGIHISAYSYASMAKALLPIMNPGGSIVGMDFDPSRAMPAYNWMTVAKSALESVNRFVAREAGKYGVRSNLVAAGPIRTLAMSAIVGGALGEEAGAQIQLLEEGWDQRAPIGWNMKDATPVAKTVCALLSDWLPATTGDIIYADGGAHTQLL
Experimental: Mtb InhA enzyme inhibition assay (Fluorescence based assay)
The compounds were dissolved in 100% dimethyl sulfoxide (DMSO). […] The 50μL enzyme reaction contained PIPES- 30 mM, pH 7.5, NaCl - 50 mM, 0.005% Brij-35, DTT - 2mM, and EDTA- 0.1mM. The enzyme reaction was started by the addition of […] of dodecyl CoA synthesized in-house and the depletion of NADH was followed by measuring the fluorescence of NADH kinetically in the reaction for 30min at excitation at 340nm and emission at 420nm using Tecan Saffire II reader. The concentration at which 50% inhibition in enzyme activity was observed was reported as the IC50.

Mtb H37Rv strain = assay: Mtb H37Rv assay, resazurin microtiter-based assay (REMA); assay type: cell-based, Mycobacterium tuberculosis; settings: REMA plate method, 90% inhibition with respect to growth control
[2] = read-out: InhA IC50, InhA 1.25 nM, 0.050 mM NADH, NADH fluorescence

SMILES | IC50 [1, 2] [µM] | melting point [°C] | MIC (Mtb H37Rv strain; Mycobacterium tuberculosis) [µM] | IC50 [1] [µM] | MIC (Mtb H37Rv strain) [µM]
Nn1c(-c2ccncc2)nn(CC(=O)Nc2ccccc2)c1=S [Compound 6a, 2-(4-Amino-3-pyridin-4-yl-5-thioxo-4,5-dihydro-[1,2,4]triazol-1-yl)-N-phenyl acetamide] | 0.68 | 242 to 244 | 12.5 (≈ 4.08 µg/mL) | – | –
Cc1ccc(NC(=O)Cn2nc(-c3ccncc3)n(N)c2=S)cc1 [Compound 6b, 2-(4-amino-3-(pyridin-4-yl)-5-thioxo-4,5-dihydro-1H-1,2,4-triazol-1-yl)-N-(p-tolyl)acetamide] | – | 237 to 238 | 0.19 (≈ 0.0647 µg/mL) | 0.09 | 0.19 (≈ 0.0647 µg/mL)
Nn1c(-c2ccncc2)nn(CC(=O)Nc2ccc(Br)cc2F)c1=S [Compound 6c, 2-(4-amino-3-(pyridin-4-yl)-5-thioxo-4,5-dihydro-1H-1,2,4-triazol-1-yl)-N-(4-bromo-2-fluorophenyl)acetamide] | – | 276 to 278 | 3.12 (≈ 1.32 µg/mL) | 6.15 | –
COc1ccc(NC(=O)Cn2nc(-c3ccncc3)n(N)c2=S)cc1 [Compound 6d, 2-(4-Amino-3-(pyridin-4-yl)-5-thioxo-4,5-dihydro-1H[1,2,4]triazol-1-yl)-N-(4-methoxyphenyl) acetamide] | 10.8 | 256 to 258 | 25 (≈ 8.91 µg/mL) | – | –
Nn1c(-c2ccncc2)nn(CC(=O)Nc2cccc(C(F)(F)F)c2)c1=S [Compound 6e, 2-(4-Amino-3-(pyridin-4-yl)-5-thioxo-4,5-dihydro-1H[1,2,4]triazol-1-yl)-N-(3-trifluoromethylphenyl) acetamide] | 5.95 | 242 to 244 | 12.5 (≈ 4.93 µg/mL) | – | –
Nn1c(-c2ccncc2)nn(CC(=O)Nc2ccc(Cl)cc2)c1=S [Compound 6f, 2-(4-Amino-(3-pyridin-4-yl)-5-thioxo-4,5-dihydro-1H[1,2,4]triazol-1-yl)-N-(4-chlorophenyl) acetamide] | 1.2 | 218 to 220 | 12.5 (≈ 4.51 µg/mL) | – | –
Cc1ccc(NC(=O)Cn2nc(-c3ccncc3)n(N)c2=S)cc1C [Compound 6g, 2-(4-Amino-(3-pyridin-4-yl)-5-thioxo-4,5-dihydro-1H[1,2,4]triazol-1-yl)-N-(3,4-dimethylphenyl) acetamide] | 0.19 | 242 to 244 | 0.39 (≈ 0.138 µg/mL) | – | –
Cc1ccc(NC(=O)Cn2nc(-c3ccncc3)n(N)c2=S)cc1Cl [Compound 6h, 2-(4-Amino-(3-pyridin-4-yl)-5-thioxo-4,5-dihydro-1H[1,2,4]triazol-1-yl)-N-(3-chloro-4-methylphenyl) acetamide] | 0.34 | 214 to 216 | 6.25 (≈ 2.34 µg/mL) | – | –
Cc1cccc(NC(=O)Cn2nc(-c3ccncc3)n(N)c2=S)c1 [Compound 6i, 2-(4-Amino-(3-pyridin-4-yl)-5-thioxo-4,5-dihydro-1H[1,2,4]triazol-1-yl)-N-(3-methylphenyl)acetamide] | – | 225 to 227 | 0.39 (≈ 0.133 µg/mL) | 0.12 | –
Nn1c(-c2ccncc2)nn(CC(=O)Nc2cccc(Cl)c2)c1=S [Compound 6j, 2-(4-Amino-(3-pyridin-4-yl)-5-thioxo-4,5-dihydro-1H[1,2,4]triazol-1-yl)-N-(3-chlorophenyl) acetamide] | 3.1 | 220 to 222 | 6.25 (≈ 2.26 µg/mL) | – | –
Nn1c(-c2ccncc2)nn(CC(=O)Nc2cc(C(F)(F)F)ccc2Cl)c1=S [Compound 6k, 2-(4-Amino-(3-pyridin-4-yl)-5-thioxo-4,5-dihydro-1H[1,2,4]triazol-1-yl)-N-(2-chloro-5-trifluoromethylphenyl) acetamide] | – | 184 to 186 | – | – | –
COc1cccc(NC(=O)Cn2nc(-c3ccncc3)n(N)c2=S)c1 [Compound 6l, 2-(4-Amino-(3-pyridin-4-yl)-5-thioxo-4,5-dihydro-1H[1,2,4]triazol-1-yl)-N-(3-methoxyphenyl) acetamide] | – | 222 to 224 | – | – | –
Nn1c(-c2ccncc2)nn(CC(=O)Nc2ccc(F)cc2)c1=S [Compound 6m, 2-(4-Amino-(3-pyridin-4-yl)-5-thioxo-4,5-dihydro-1H[1,2,4]triazol-1-yl)-N-(4-fluorophenyl) acetamide] | – | 227 to 229 | – | – | –
Nn1c(-c2ccncc2)nn(CC(=O)Nc2ccc(C(F)(F)F)cc2)c1=S [Compound 6n, 2-(4-Amino-(3-pyridin-4-yl)-5-thioxo-4,5-dihydro-1H[1,2,4]triazol-1-yl)-N-(4-trifluoromethylphenyl) acetamide] | – | 227 to 229 | – | – | –
Nn1c(-c2ccncc2)nn(CC(=O)Nc2ccccn2)c1=S [Compound 6o, 2-(4-Amino-(3-pyridin-4-yl)-5-thioxo-4,5-dihydro-1H[1,2,4]triazol-1-yl)-N-pyridin-2-yl acetamide] | 76 | 212 to 214 | 100 (≈ 32.7 µg/mL) | – | –
Cc1cccc(NC(=O)Cn2nc(-c3ccncc3)n(N)c2=S)n1 [Compound 6p, 2-(4-Amino-(3-pyridin-4-yl)-5-thioxo-4,5-dihydro-1H[1,2,4]triazol-1-yl)-N-(6-methylpyridin-2-yl) acetamide] | 86 | 230 to 232 | 100 (≈ 34.1 µg/mL) | – | –
Cc1ccnc(NC(=O)Cn2nc(-c3ccncc3)n(N)c2=S)c1 [Compound 6q, 2-(4-Amino-(3-pyridin-4-yl)-5-thioxo-4,5-dihydro-1H[1,2,4]triazol-1-yl)-N-(4-methylpyridin-2-yl) acetamide] | – | 217 to 219 | – | – | –
Nn1c(-c2ccncc2)nn(CC(=O)Nc2ncccn2)c1=S [Compound 6r, 2-(4-Amino-(3-pyridin-4-yl)-5-thioxo-4,5-dihydro-1H[1,2,4]triazol-1-yl)-N-pyrimidin-2-yl acetamide] | – | 205 to 207 | – | – | –
Cc1cc(NC(=O)Cn2nc(-c3ccncc3)n(N)c2=S)no1 [Compound 6s, 2-(4-Amino-(3-pyridin-4-yl)-5-thioxo-4,5-dihydro-1H[1,2,4]triazol-1-yl)-N-(5-methylisoxazol-3-yl) acetamide] | – | 242 to 244 | – | – | –
Cc1cccc2sc(NC(=O)Cn3nc(-c4ccncc4)n(N)c3=S)nc12 [Compound 6t, 2-(4-Amino-(3-pyridin-4-yl)-5-thioxo-4,5-dihydro-1H[1,2,4]triazol-1-yl)-N-(4-methylbenzothiazol-3-yl) acetamide] | – | 243 to 245 | – | – | –
Nn1c(-c2ccncc2)nn(CC(=O)Nc2nccs2)c1=S [Compound 6u, 2-(4-Amino-(3-pyridin-4-yl)-5-thioxo-4,5-dihydro-1H[1,2,4]triazol-1-yl)-N-thiazol-2-yl acetamide] | – | 253 to 255 | – | – | –
Cc1cnc(NC(=O)Cn2nc(-c3ccncc3)n(N)c2=S)s1 [Compound 6v, 2-(4-Amino-(3-pyridin-4-yl)-5-thioxo-4,5-dihydro-1H[1,2,4]triazol-1-yl)-N-(5-methylthiazol-2-yl) acetamide] | – | 250 to 252 | – | – | –
O=C(Cn1nc(-c2ccncc2)oc1=S)Nc1ccccn1 [Compound 7a, 2-(5-pyridin-4-yl-2-thioxo-[1,3,4]oxadiazol-3-yl)-N-pyridin-2-yl acetamide] | – | 216 to 218 | – | – | –
Cc1cc(NC(=O)Cn2nc(-c3ccncc3)oc2=S)no1 [Compound 7b, N-(5-methylisoxazol-3-yl)-2-(5-(pyridin-4-yl)-2-thioxo-1,3,4-oxadiazol-3(2H)-yl)acetamide] | – | 232 to 234 | 50 (≈ 15.9 µg/mL) | 24 | –
O=C(Cn1nc(-c2ccncc2)oc1=S)Nc1nccs1 [Compound 7c, 2-(5-pyridin-4-yl-2-thioxo-[1,3,4]oxadiazol-3-yl)-N-thiazol-2-yl acetamide] | – | 244 to 246 | – | – | –
Cc1cnc(NC(=O)Cn2nc(-c3ccncc3)oc2=S)s1 [Compound 7d, N-(5-methylthiazol-2-yl)-2-(5-(pyridin-4-yl)-2-thioxo-1,3,4-oxadiazol-3(2H)-yl)acetamide] | – | 236 to 238 | 100 (≈ 33.3 µg/mL) | 67 | –
O=C(Cn1nc(-c2ccncc2)oc1=S)Nc1ncc([N+](=O)[O-])s1 [Compound 7e, N-(5-nitrothiazol-2-yl)-2-(5-(pyridin-4-yl)-2-thioxo-1,3,4-oxadiazol-3(2H)-yl)acetamide] | – | 254 to 256 | 100 (≈ 36.4 µg/mL) | 82 | –
O=C(Cn1nc(-c2ccncc2)oc1=S)Nc1nc2ccccc2s1 [Compound 7f, 2-(5-pyridin-4-yl-2-thioxo-[1,3,4]oxadiazol-3-yl)-N-benzothiazol-2-yl acetamide] | – | 206 to 208 | – | – | –
CCOc1ccc2nc(NC(=O)Cn3nc(-c4ccncc4)oc3=S)sc2c1 [Compound 7g, N-(6-ethoxybenzo[d]thiazol-2-yl)-2-(5-(pyridin-4-yl)-2-thioxo-1,3,4-oxadiazol-3(2H)-yl)acetamide] | – | 252 to 254 | > 100 | > 100 | –
NNC(=O)c1ccncc1 [INH, isoniazid, reference compound] | – | – | 0.05 (≈ 0.00686 µg/mL) | – | –
